Reference: patent US7999137B2, “Pesticide bi-phenyl-amidine derivatives” (Bayer Cropscience AG, priority 2006, dated 2011)

Assays:
[1] = logP by HPLC on reversed-phase column (C 18), EEC Directive 79/831 Annex V.A8; format: physicochemical; details: HPLC reversed-phase C 18; 40° C.; 0.1% aqueous formic acid and acetonitrile, linear gradient 10% to 90% acetonitrile
Method: Temperature: 40° C.; Mobile phases: 0.1% aqueous formic acid and acetonitrile; linear gradient from 10% acetonitrile to 90% acetonitrile.
Calibration was carried out using unbranched alkan-2-ones (comprising 3 to 16 carbon atoms) with known logP values (determination of the logP values by the retention times using linear interpolation between two successive alkanones).

Aedes aegypti larvae = assay: In vivo protective test on Aedes aegypti (AEDSAE U), larvae mortality; details: concentration and time not stated
Method: In Vivo Protective Test on Aedes Aegypti (AEDSAE U)
To produce a suitable preparation of the active compound, the active compound is mixed with the stated amount of solvent, and the concentrate is diluted with staining water to the desired concentration.
Aedes aegypti larvae are pipetted with a preparation of active ingredient of the desired concentration.
After the specified period of time, mortality in % is determined. 100% means that all larvae have been killed, a 0% means that none of the larvae have been killed.

Heliotis virescens = assay: Test on Heliotis virescens (HELIVI spray application), egg mortality on soybean leaf sections; format: in vivo; details: eggs on sprayed soybean leaf sections; concentration and time not stated
From the text: Heliotis virescens—Test on Heliotis virescens (HELIVI Spray Application)
To produce a suitable preparation of the active compound, 1 part by weight of active compound is mixed with the stated amount of solvent and emulsifier, and the concentrate is dilutes with emulsifier-containing water to the desired concentration.
Soybean (Glycine max.) leaf sections are sprayed with a preparation of the active ingredient of the desired concentration. Once dry, the leaf sections are infested with eggs of cotton bollworm (Heliotis virescens).
After the specified period of time, mortality in % is determined. 100% means that all eggs have been killed and 0% means that none of the eggs have been killed.

Structure (SMILES) | log p (HCOOH) [1] | activity (mortality of larvae) (Aedes aegypti larvae) | activity (mortality of eggs) (Heliotis virescens)
CCN(C)C=Nc1ccc(-c2ccc(F)c(Cl)c2)cc1F [Compound 9] | 1.78 | good activity | 
CCN(C)C=Nc1ccc(-c2ccc(Cl)c(C(F)(F)F)c2)cc1C(F)(F)F [Compound 19] | 2.90 | good activity | 
CCc1cc(-c2ccc(Cl)c(Cl)c2)ccc1N=CN(C)CC [Compound 54] | 2.37 | good activity | 
CC(C)N(C)C=Nc1ccc(-c2ccc(OC(F)(F)F)cc2)c(Cl)c1 [Compound 105] | 2.42 | good activity | 
CCN(C)C=Nc1ccc(-c2ccc(C(F)(F)F)cc2)cc1F [Compound 26] | 1.87 | good activity | good activity
CCN(C)C=Nc1ccc(-c2ccc(OC(F)(F)F)cc2)c(Cl)c1 [Compound 100] | 2.15 | good activity | 
CCN(C)C=Nc1ccc(-c2ccc(Cl)c(C(F)(F)F)c2)cc1Cl [Compound 18] | 2.19 | good activity | 
CCN(C)C=Nc1ccc(-c2ccc(C(F)(F)F)cc2)cc1C [Compound 127] | 2.17 | good activity | 
Cc1cc(-c2ccc(Cl)cc2)c(F)cc1N=CN(C)C(C)C [Compound 104] | 2.22 | good activity | 
CCN(C)C=Nc1ccc(-c2ccc(C=NOC)cc2)cc1F [Compound 77] | 1.73 | good activity | 
CCN(C)C=Nc1cc(F)c(-c2ccc(Cl)cc2)cc1C [Compound 99] | 2.23 | good activity | 
CCN(C)C=Nc1ccc(-c2cccc(Cl)c2)cc1C [Compound 128] | 2.01 | good activity | 
CCN(C)C=Nc1cc(C)c(-c2ccc(Oc3ccccc3)cc2)cc1C [Compound 47] | 2.56 | good activity | 
CCN(C)C=Nc1ccc(-c2ccc(C(C)(C)C)cc2)cc1C [Compound 129] | 2.67 | good activity | 
